Results as given in patent publication US8623429B2, “Stabilized anthocyanin compositions” (Omnica GmbH, priority 2007, dated 2014).

What was measured:
Type in all cases: physicochemical
[1] = Example 3: stability of black currant extract anthocyanosides, 4 hours at 37° C., pH 7.0, with/without DHLA, GSH or L-cysteine (HPLC)
Protocol: (§1) Sample a) 60 mg black currant extract [35% anthocyanosides] (0.037 mmol anthocyanosides expressed as cyanidin-3-O-rutinoside) were added to a 100 ml flask and filled to volume with sodium phosphate buffer (5% [w/w], pH=7.0) and stirred until dissolution was complete. A 1 ml sample was taken immediately, acidified with formic acid to pH=1.0 and analyzed by HPLC for the content of anthocyanosides (Fresh Sample). The remaining solution was kept for 4 hours at 37° C. (water bath) with stirring. Thereafter samples (Blank sample), representing unprotected degradation, were taken and acidified.
(§2) Sample b) 20 mg reduced L-glutathione (0.065 mmol) were added to a 100 ml flask with 60 ml sodium phosphate buffer (5% [w/w], pH=7.0) and stirred until dissolution was complete. 60 mg black currant extract [35% anthocyanosides] (0.037 mmol anthocyanosides expressed as cyanidin-3-O-rutinoside) were then added and the flask was filled to volume with sodium phosphate buffer (5% [w/w], pH=7.0) and kept for 4 hours at 37° C. (water bath) with stirring.
as §2, with “Sample c)” for “Sample b)”, “mg dihydrolipoic acid (0.096” for “mg reduced L-glutathione (0.065”, “was completed.” for “was complete.”, “were” for “were then”, “added to” for “added and”, “the flask,” for “the flask was”
as §2, with “Sample d)” for “Sample b)”, “mg L-cysteine acid (0.165” for “mg reduced L-glutathione (0.065”, “were” for “were then”, “added to” for “added and”, “the flask,” for “the flask was”
After 4 hours samples were taken, acidified immediately with formic acid to pH=1.0 and analyzed by HPLC for the content of anthocyanosides. Degradation is expressed as decrease in peak area of individual peaks (calculated as % left after 4 hours).
(§3) Samples were prepared as outlined below in HPLC Analytical Method. Test stability samples were immediately acidified (to block degradation) and injected undiluted following the detailed description provided below.
(§4) HPLC Analytical Method (Materials, Instruments and Methods): […]

[2] = Example 5: degradation over time of black currant anthocyanosides at 37° C., pH 7.0, with/without GSH (HPLC); conditions: pH 7.0, 37° C.; for %-residual anthocyanosides (% left): 4 hours
Protocol: as §1, with “flask,” for “flask and”, “anthocyanosides.” for “anthocyanosides (Fresh Sample).”, “kept” for “kept for 4 hours”, “stirring and 1 ml” for “stirring. Thereafter”, “Samples),” for “sample),”, “every 15 minutes. The samples were analyzed for selected anthocyanosides by HPLC.” for “and acidified.”
as §2, with “added,” for “then added and”, “for” for “for 4 hours”, “stirring. Every 15 minutes 1 ml samples were taken and analyzed for selected anthocyanosides by HPLC.” for “stirring.”
as §3

[3] = Example 1: stability of bilberry extract anthocyanosides, 4 hours at 37° C., pH 7.0, with/without DHLA or GSH (HPLC)
[4] = Example 2: degradation over time of selected bilberry anthocyanosides at 37° C., pH 7.0, with/without GSH (HPLC); conditions: pH 7.0, 37° C.; for %-residual anthocyanosides (% left): 4.30 hours
Protocol: Sample a) 60 mg bilberry extract [37% anthocyanosides] (0.048 mmol expressed as cyanidin-3-O-glucoside) were added to a 100 ml, filled to volume with sodium phosphate buffer (5% [w/w], pH=7.0) and stirred until dissolution was complete. A 1 ml sample was immediately taken and acidified with formic acid to pH=1.0 and analyzed by HPLC for the content of anthocyanosides. The remaining solution was kept at 37° C. (water bath) with stirring and additional 1 ml samples (Blank Samples), representing unprotected degradation, were sampled every 15 minutes. The samples were analyzed for selected anthocyanosides by HPLC.
Sample b) 20 mg reduced L-glutathione (0.065 mmol) were added to a 100 ml flask with 60 ml sodium phosphate buffer (5% [w/w], pH=7.0) and stirred until dissolution was complete. 60 mg bilberry extract [37% anthocyanosides] (0.048 mmol expressed as cyanidin-3-O-glucoside) were added and the flask was filled to volume with sodium phosphate buffer (5% [w/w], pH=7.0) and kept at 37° C. (water bath) with stirring. Every 15 minutes, 1 ml samples were taken and analyzed for selected anthocyanosides by HPLC.
as §3, §4

[5] = unprotected, pH 7.0, 37° C., 4 hours
[6] = GSH protected sample (20 mg), 0:00 h
[7] = GSH protected sample (20 mg), 0:15 h
[8] = GSH protected sample (20 mg), 0:45 h
[9] = GSH protected sample (20 mg), 1:00 h
[10] = GSH protected sample (20 mg), 1:15 h
[11] = GSH protected sample (20 mg), 1:45 h
[12] = GSH protected sample (20 mg), 2:00 h
[13] = GSH protected sample (20 mg), 2:15 h
[14] = GSH protected sample (20 mg), 2:45 h
[15] = GSH protected sample (20 mg), 3:00 h
[16] = GSH protected sample (20 mg), 3:15 h
[17] = GSH protected sample (20 mg), 3:45 h
[18] = GSH protected sample (20 mg), 4:00 h
[19] = GSH protected sample (20 mg), 4:15 h
[20] = 20 mg reduced L-glutathione, pH 7.0, 37° C., 4 hours
[21] = 30 mg dihydrolipoic acid, pH 7.0, 37° C., 4 hours

Which “Peak Area, Fresh solution” value ([1]; black currant extract 60 mg/100 ml buffer pH 7.0, fresh sample) does the source give for C[C@@H]1O[C@@H](OC[C@H]2O[C@@H](Oc3cc4c(O)cc(O)cc4[o+]c3-c3ccc(O)c(O)c3)[C@H](O)[C@@H](O)[C@@H]2O)[C@H](O)[C@H](O)[C@H]1O [Cn-3-O-Rut, Cyanidin-3-O-rutinoside] here?
Its value is 3539.

And the “% left, DHLA 20 mg” value ([1]; pH 7.0, 37° C., 4 hours)?
The value was 51.1%.

And the “% left, GSH 20 mg” value ([1]; pH 7.0, 37° C., 4 hours)?
The value was 65.0%.

What about the “% left, L-cysteine 20 mg” value ([1]; pH 7.0, 37° C., 4 hours) of the same compound?
The value was 38.9%.

What about the “Peak Area, DHLA 20 mg” value ([1]; pH 7.0, 37° C., 4 hours) of the same compound?
Its value is 1809.

And the “Peak Area, GSH 20 mg” value ([1]; pH 7.0, 37° C., 4 hours)?
The value was 2299.

And the “Peak Area, L-cysteine 20 mg” value ([1]; pH 7.0, 37° C., 4 hours)?
Its value is 1377.

What about the “% left, Blank” value [1, 5] of the same compound?
Its value is 33.4%.

And the “Peak Area, Blank” value [1, 5]?
The value was 1183.

What about the “Peak Area” value ([2]; Blank sample, 0:00 h) of the same compound?
The value was 3539.1.

What about the “Peak Area” value ([2]; Blank sample, 0:15 h) of the same compound?
Its value is 2707.4.

And the “Peak Area” value ([2]; Blank sample, 0:30 h)?
The value was 2620.7.

And the “Peak Area” value ([2]; Blank sample, 0:45 h)?
The value was 2342.2.

What about the “Peak Area” value ([2]; Blank sample, 1:00 h) of the same compound?
Its value is 2278.1.

What about the “Peak Area” value ([2]; Blank sample, 1:30 h) of the same compound?
The value was 2130.7.

And the “Peak Area” value ([2]; Blank sample, 1:45 h)?
The value was 2104.9.

And the “Peak Area” value ([2]; Blank sample, 2:00 h)?
The value was 1894.9.

And the “Peak Area” value ([2]; Blank sample, 2:15 h)?
The value was 1851.7.

And the “Peak Area” value ([2]; Blank sample, 2:30 h)?
Its value is 1790.9.

And the “Peak Area” value ([2]; Blank sample, 2:45 h)?
Its value is 1694.9.

And the “Peak Area” value ([2]; Blank sample, 3:00 h)?
Its value is 1573.5.

What about the “Peak Area” value ([2]; Blank sample, 3:15 h) of the same compound?
The value was 1531.6.

What about the “Peak Area” value ([2]; Blank sample, 3:30 h) of the same compound?
Its value is 1370.4.

And the “Peak Area” value ([2]; Blank sample, 3:45 h)?
The value was 1361.3.

And the “Peak Area” value ([2]; Blank sample, 4:00 h)?
The value was 1182.9.

What about the “%-residual anthocyanosides (% left)” value ([2]; Blank) of the same compound?
The value was 33%.

And the “Peak Area” value [2, 6]?
The value was 3473.6.

And the “Peak Area” value [2, 7]?
Its value is 3108.1.

And the “Peak Area” value [2, 8]?
Its value is 2964.3.

What about the “Peak Area” value [2, 9] of the same compound?
The value was 3015.3.

What about the “Peak Area” value [2, 10] of the same compound?
Its value is 2958.5.

What about the “Peak Area” value [2, 11] of the same compound?
The value was 2688.8.

What about the “Peak Area” value [2, 12] of the same compound?
The value was 2777.8.

What about the “Peak Area” value [2, 13] of the same compound?
Its value is 2579.6.

And the “Peak Area” value [2, 14]?
Its value is 2447.1.

What about the “Peak Area” value [2, 15] of the same compound?
The value was 2534.7.

And the “Peak Area” value [2, 16]?
Its value is 2366.8.

And the “Peak Area” value [2, 17]?
The value was 2274.2.

And the “Peak Area” value [2, 18]?
The value was 2298.9.

What about the “Peak Area” value [2, 19] of the same compound?
The value was 2199.7.

And the “%-residual anthocyanosides (% left)” value ([2]; GSH-protected)?
Its value is 66%.

With COc1cc(-c2[o+]c3cc(O)cc(O)c3cc2OC2OC(CO)C(O)C(O)C2O)cc(O)c1O (stereo not shown) [Pt-3O-Gal, Petunidin 3-o-galactoside] as the compound, how does the “% left, GSH (4 hours)” value [3, 20] read?
Its value is 69.3%.

What about the “Peak Area, GSH (4 hours)” value [3, 20] of the same compound?
Its value is 150.0.

And the “% left, DHLA (4 hours)” value [3, 21]?
The value was 61.4%.

What about the “Peak Area, DHLA (4 hours)” value [3, 21] of the same compound?
Its value is 132.8.

And the “Peak Area, Fresh (0 hours)” value ([3]; bilberry extract 60 mg/100 ml sodium phosphate buffer pH 7.0, fresh sample)?
Its value is 216.4.

What about the “% left, Blank (4 hours)” value [3, 5] of the same compound?
Its value is 18.8%.

And the “Peak Area, Blank (4 hours)” value [3, 5]?
Its value is 40.7.

What about the “Peak Area” value ([4]; Blank Sample, 1:15 h) of the same compound?
The value was 124.16.

What about the “Peak Area” value ([4]; Blank Sample, 4:15 h) of the same compound?
The value was 102.44.

And the “Peak Area” value ([4]; Blank Sample, 4:30 h)?
The value was 58.78.

And the “Peak Area” value ([4]; Blank sample, 0:00 h)?
The value was 237.44.

What about the “Peak Area” value ([4]; Blank sample, 0:15 h) of the same compound?
Its value is 179.60.

What about the “Peak Area” value ([4]; Blank sample, 0:30 h) of the same compound?
The value was 203.39.

What about the “Peak Area” value ([4]; Blank sample, 0:45 h) of the same compound?
The value was 152.46.

And the “Peak Area” value ([4]; Blank sample, 1:00 h)?
Its value is 161.49.

What about the “Peak Area” value ([4]; Blank sample, 1:45 h) of the same compound?
The value was 144.59.

And the “Peak Area” value ([4]; Blank sample, 2:00 h)?
The value was 132.38.

And the “Peak Area” value ([4]; Blank sample, 2:15 h)?
Its value is 121.96.

And the “Peak Area” value ([4]; Blank sample, 2:30 h)?
The value was 96.36.

What about the “Peak Area” value ([4]; Blank sample, 2:45 h) of the same compound?
Its value is 99.38.

And the “Peak Area” value ([4]; Blank sample, 3:00 h)?
The value was 127.47.

What about the “Peak Area” value ([4]; Blank sample, 3:15 h) of the same compound?
The value was 123.02.

What about the “Peak Area” value ([4]; Blank sample, 3:30 h) of the same compound?
The value was 98.72.

And the “Peak Area” value ([4]; Blank sample, 4:00 h)?
The value was 107.51.

What about the “%-residual anthocyanosides (% left)” value ([4]; Blank) of the same compound?
The value was 25%.

What about the “Peak Area” value ([4]; GSH Protected Sample (20 mg), 0:30 h) of the same compound?
The value was 222.35.

What about the “Peak Area” value ([4]; GSH Protected Sample (20 mg), 1:30 h) of the same compound?
Its value is 202.34.

What about the “Peak Area” value ([4]; GSH Protected Sample (20 mg), 2:30 h) of the same compound?
Its value is 169.36.

What about the “Peak Area” value ([4]; GSH Protected Sample (20 mg), 3:30 h) of the same compound?
Its value is 181.53.

What about the “Peak Area” value ([4]; GSH Protected Sample (20 mg), 4:30 h) of the same compound?
Its value is 181.46.

What about the “Peak Area” value ([4]; GSH Protected Sample (20 mg), 4:45 h) of the same compound?
The value was 166.84.

What about the “Peak Area” value [4, 6] of the same compound?
Its value is 248.16.

And the “Peak Area” value [4, 7]?
The value was 245.04.

And the “Peak Area” value [4, 8]?
Its value is 195.63.

And the “Peak Area” value [4, 9]?
The value was 213.84.

And the “Peak Area” value [4, 10]?
The value was 210.34.

And the “Peak Area” value [4, 11]?
Its value is 194.88.

What about the “Peak Area” value [4, 12] of the same compound?
The value was 193.23.

What about the “Peak Area” value [4, 13] of the same compound?
Its value is 199.06.

And the “Peak Area” value [4, 14]?
The value was 183.97.

And the “Peak Area” value [4, 15]?
The value was 189.41.

And the “Peak Area” value [4, 16]?
Its value is 185.92.

What about the “Peak Area” value [4, 17] of the same compound?
Its value is 173.03.

And the “Peak Area” value [4, 18]?
The value was 193.79.

What about the “Peak Area” value [4, 19] of the same compound?
The value was 179.46.

And the “%-residual anthocyanosides (% left)” value ([4]; GSH-protected)?
Its value is 67%.

What about the “%-residual anthocyanosides (% left)” value ([4]; GSH-protected, listed as petunidin-3-O-Galactose) of the same compound?
The value was 67%.
